Measured values: PMC10643470, “Knockout or inhibition of USP30 protects dopaminergic neurons in a Parkinson’s disease mouse model” (Nature Communications, 2023)
“Also recorded” adds a separate entry of the source. Like-named read-outs stand apart in the source and are kept apart here.

How the values were obtained:
[1] = system: TOM20 ubiquitylation in HeLa cells overexpressing PARKIN; assay: Cell TOM20 ubiquitination assay (HeLa YFP-Parkin + A/O); type: cell-based, human; conditions: for EC50: Homo sapiens, 1.5 h
Protocol: Hela cells overexpressing YFP-Parkin were treated with 1 µM Antimycin A and 1 µM Oligomycin A (AA/OA) and test compound or DMSO for 90 mins. Following treatment, media was removed, and cells were washed in DPBS and then lysed in NP40 lysis buffer on ice. […] The bands corresponding to all forms of ubiquitylated TOM20 were quantified and normalized to the same bands for AA/OA treated cells.

[2] = system: SH-SY5Y mito-QC cells; assay: Mitophagy (mito-QC) live imaging in SH-SY5Y cells; type: cell-based, human
Protocol: SH-SY5Y cells stably expressing mCherry-GFP-Fis1101-152 reporter (SH-SY5Y mito-QC) kindly provided by Dr I Ganley (MRC PPU, Dundee) were cultured in DMEM/F12 media supplemented with 1% L-glutamine, 1% penicillin/streptomycin, 1% non-essential amino acids, 10% fetal bovine serum at 37 °C and 5% CO2.
For inhibitor studies, live imaging was applied to mitophagy puncta analysis in SH-SY5Y mito-QC cells. SH-SY5Y mito-QC cells were plated overnight at 7000 cells/well into black walled PhenoPlate 96-well microplates in DMEM/F-12 (phenol red free) supplemented as above. SH-SY5Y mito-QC cells were incubated with NucBlue™ live stain for 20 mins then washed. […] Cells were live imaged using the Operetta CLS Type HH1600 (optical mode set to confocal, 40x water objective) at timepoints 0 h, 4 h, 20 h, 24 h, 48 h and 72 h. Images were acquired using the following channel settings: mCherry; excitation 530/60 nm, emission 570/650 nm, GFP; excitation 460/90 nm, emission 500/650 nm, Hoechst; excitation 355/85 nm, emission 430/500 nm. For all conditions tested, quantification of mitophagy was performed from three independent experiments (with three technical replicates capturing 11 fields of views, 6 z-stacks).
Image Quantification: For analysis of mitophagy, images were processed with the Harmony analysis software using the “SH-SY5Y-mito-QC_analysis 2” sequence. For mitolysosome identification the following analysis steps were performed: (1) Identification of the cell nuclei using Hoechst staining, (2) Identification of the cell cytoplasm using a deep phase contrast (DPC) image, (3) Identification of the mitochondrial network, using the Ser-Bright function on the mCherry channel within the cytoplasm, (4) Mitochondrial network partitioning using the FindSpots function, (5) Identification of mitophagic puncta with the partitioned mitochondrial network, using an mCherry:GFP ratio threshold of mean >+3 standard deviations from the 24 h DMSO only treated cells.

[3] = target: USP28 (Homo sapiens, UniProt Q96RU2); assay: DUB/cathepsin selectivity biochemical assay
[4] = target: USP47 (Homo sapiens, UniProt Q96K76); assay: DUB/cathepsin selectivity biochemical assay
[5] = target: USP11 (Homo sapiens, UniProt P51784); assay: DUB/cathepsin selectivity biochemical assay
[6] = target: MINDY3 (Homo sapiens, UniProt Q9H8M7); assay: DUB/cathepsin selectivity biochemical assay
[7] = target: USP48 (Homo sapiens, UniProt Q86UV5); assay: DUB/cathepsin selectivity biochemical assay
[8] = target: OTUB1/UBCH5B (Homo sapiens, UniProt Q96FW1); assay: DUB/cathepsin selectivity biochemical assay
[9] = target: YOD1 (Homo sapiens, UniProt Q5VVQ6); assay: DUB/cathepsin selectivity biochemical assay
[10] = target: CEZANNE1 (Homo sapiens, UniProt Q6GQQ9); assay: DUB/cathepsin selectivity biochemical assay
[11] = target: T1, SENP2 CD (Homo sapiens, UniProt Q9HC62); assay: DUB/cathepsin selectivity biochemical assay
T1 construct: SENP2 CD

[12] = target: USP4 (Homo sapiens, UniProt Q13107); assay: DUB/cathepsin selectivity biochemical assay
[13] = target: T2, OTUD1 CD (Homo sapiens, UniProt Q5VV17); assay: DUB/cathepsin selectivity biochemical assay
T2 construct: OTUD1 CD

[14] = target: UchL3 (Homo sapiens, UniProt P15374); assay: DUB/cathepsin selectivity biochemical assay
[15] = target: USP46/UAF1 (Homo sapiens, UniProt P62068); assay: DUB/cathepsin selectivity biochemical assay
[16] = target: USP7 (Homo sapiens, UniProt Q93009); assay: DUB/cathepsin selectivity biochemical assay
[17] = target: OTUD5(p177S) (Homo sapiens, UniProt Q96G74); assay: DUB/cathepsin selectivity biochemical assay
[18] = target: T3, OTUD3 CD (Homo sapiens, UniProt Q5T2D3); assay: DUB/cathepsin selectivity biochemical assay
T3 construct: OTUD3 CD

[19] = target: USP15 (Homo sapiens, UniProt Q9Y4E8); assay: DUB/cathepsin selectivity biochemical assay
[20] = target: USP14 (Homo sapiens, UniProt P54578); assay: DUB/cathepsin selectivity biochemical assay
[21] = target: OTUD6B (Homo sapiens, UniProt Q8N6M0); assay: DUB/cathepsin selectivity biochemical assay

CEZANNE1, sequence (Q6GQQ9 whole entry): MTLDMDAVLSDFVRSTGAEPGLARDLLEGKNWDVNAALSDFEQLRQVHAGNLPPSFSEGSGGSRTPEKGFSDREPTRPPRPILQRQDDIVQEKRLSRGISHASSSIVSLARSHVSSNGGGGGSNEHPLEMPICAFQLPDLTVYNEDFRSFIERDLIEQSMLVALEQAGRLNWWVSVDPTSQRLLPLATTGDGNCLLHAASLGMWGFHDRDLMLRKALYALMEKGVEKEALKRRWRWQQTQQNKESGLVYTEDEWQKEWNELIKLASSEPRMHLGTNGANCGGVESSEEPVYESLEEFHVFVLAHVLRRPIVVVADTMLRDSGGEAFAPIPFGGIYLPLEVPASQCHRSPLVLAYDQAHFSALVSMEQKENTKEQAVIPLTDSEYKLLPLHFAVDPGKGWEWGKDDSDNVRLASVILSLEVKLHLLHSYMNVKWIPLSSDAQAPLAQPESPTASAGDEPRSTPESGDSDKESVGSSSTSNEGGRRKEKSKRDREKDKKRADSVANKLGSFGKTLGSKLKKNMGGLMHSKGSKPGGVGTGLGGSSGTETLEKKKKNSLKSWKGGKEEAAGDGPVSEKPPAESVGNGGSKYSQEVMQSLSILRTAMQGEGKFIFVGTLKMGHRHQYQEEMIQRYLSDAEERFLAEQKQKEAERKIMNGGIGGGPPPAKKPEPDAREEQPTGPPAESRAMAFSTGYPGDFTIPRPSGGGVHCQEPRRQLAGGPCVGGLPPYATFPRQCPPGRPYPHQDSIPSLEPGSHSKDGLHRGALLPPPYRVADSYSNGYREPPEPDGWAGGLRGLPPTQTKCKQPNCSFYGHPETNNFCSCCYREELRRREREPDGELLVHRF
USP4, sequence (Q13107 whole entry, species assumed): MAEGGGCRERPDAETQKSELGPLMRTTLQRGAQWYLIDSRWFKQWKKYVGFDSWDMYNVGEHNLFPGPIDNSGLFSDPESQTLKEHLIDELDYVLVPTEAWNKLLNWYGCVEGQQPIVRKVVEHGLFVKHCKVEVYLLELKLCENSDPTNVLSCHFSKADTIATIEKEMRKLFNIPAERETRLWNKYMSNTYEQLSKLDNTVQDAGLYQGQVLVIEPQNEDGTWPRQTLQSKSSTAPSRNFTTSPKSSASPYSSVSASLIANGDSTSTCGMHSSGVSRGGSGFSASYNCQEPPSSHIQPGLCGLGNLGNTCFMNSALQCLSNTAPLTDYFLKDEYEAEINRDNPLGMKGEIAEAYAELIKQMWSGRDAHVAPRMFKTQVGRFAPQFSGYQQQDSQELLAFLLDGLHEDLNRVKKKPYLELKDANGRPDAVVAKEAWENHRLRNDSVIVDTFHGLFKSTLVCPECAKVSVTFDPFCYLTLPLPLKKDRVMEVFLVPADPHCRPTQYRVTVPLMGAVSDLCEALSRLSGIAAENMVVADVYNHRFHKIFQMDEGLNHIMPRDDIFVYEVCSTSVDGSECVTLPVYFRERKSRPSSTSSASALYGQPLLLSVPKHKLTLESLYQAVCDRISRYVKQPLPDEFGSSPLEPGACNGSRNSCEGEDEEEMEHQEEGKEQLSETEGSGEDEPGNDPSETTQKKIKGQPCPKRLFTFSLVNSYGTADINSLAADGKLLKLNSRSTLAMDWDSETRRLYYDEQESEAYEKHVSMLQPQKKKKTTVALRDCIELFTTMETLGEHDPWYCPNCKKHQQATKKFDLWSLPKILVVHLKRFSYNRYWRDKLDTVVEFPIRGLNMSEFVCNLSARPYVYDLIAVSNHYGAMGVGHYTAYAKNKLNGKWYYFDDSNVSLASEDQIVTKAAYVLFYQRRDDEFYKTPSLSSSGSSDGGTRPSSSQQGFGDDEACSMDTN
OTUB1/UBCH5B, sequence (Q96FW1 whole entry, species assumed): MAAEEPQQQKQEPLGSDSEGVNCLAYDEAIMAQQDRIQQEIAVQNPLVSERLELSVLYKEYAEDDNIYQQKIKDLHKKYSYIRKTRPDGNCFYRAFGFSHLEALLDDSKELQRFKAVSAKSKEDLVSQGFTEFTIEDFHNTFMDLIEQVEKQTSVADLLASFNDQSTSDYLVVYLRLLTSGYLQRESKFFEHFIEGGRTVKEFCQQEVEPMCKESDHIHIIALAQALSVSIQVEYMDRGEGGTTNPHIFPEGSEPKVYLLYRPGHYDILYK
OTUB1/UBCH5B, sequence (P62837 whole entry partner, species assumed): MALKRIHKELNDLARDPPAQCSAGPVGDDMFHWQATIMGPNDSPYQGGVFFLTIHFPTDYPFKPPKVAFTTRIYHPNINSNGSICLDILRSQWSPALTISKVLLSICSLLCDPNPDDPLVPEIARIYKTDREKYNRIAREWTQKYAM
USP14, sequence (P54578 whole entry, species assumed): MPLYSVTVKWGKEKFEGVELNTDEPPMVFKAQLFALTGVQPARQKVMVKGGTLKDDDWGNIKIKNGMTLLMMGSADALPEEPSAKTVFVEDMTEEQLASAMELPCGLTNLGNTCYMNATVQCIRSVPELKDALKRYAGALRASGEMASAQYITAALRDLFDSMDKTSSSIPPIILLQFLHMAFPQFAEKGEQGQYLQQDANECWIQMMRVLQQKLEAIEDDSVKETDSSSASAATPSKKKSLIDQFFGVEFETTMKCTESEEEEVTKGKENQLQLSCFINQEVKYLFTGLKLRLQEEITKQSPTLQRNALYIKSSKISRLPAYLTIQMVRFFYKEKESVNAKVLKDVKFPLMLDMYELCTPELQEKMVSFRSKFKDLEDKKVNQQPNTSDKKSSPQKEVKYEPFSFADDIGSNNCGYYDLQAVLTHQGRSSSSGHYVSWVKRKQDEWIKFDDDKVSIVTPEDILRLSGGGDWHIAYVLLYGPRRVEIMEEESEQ
USP28, sequence (Q96RU2 whole entry, species assumed): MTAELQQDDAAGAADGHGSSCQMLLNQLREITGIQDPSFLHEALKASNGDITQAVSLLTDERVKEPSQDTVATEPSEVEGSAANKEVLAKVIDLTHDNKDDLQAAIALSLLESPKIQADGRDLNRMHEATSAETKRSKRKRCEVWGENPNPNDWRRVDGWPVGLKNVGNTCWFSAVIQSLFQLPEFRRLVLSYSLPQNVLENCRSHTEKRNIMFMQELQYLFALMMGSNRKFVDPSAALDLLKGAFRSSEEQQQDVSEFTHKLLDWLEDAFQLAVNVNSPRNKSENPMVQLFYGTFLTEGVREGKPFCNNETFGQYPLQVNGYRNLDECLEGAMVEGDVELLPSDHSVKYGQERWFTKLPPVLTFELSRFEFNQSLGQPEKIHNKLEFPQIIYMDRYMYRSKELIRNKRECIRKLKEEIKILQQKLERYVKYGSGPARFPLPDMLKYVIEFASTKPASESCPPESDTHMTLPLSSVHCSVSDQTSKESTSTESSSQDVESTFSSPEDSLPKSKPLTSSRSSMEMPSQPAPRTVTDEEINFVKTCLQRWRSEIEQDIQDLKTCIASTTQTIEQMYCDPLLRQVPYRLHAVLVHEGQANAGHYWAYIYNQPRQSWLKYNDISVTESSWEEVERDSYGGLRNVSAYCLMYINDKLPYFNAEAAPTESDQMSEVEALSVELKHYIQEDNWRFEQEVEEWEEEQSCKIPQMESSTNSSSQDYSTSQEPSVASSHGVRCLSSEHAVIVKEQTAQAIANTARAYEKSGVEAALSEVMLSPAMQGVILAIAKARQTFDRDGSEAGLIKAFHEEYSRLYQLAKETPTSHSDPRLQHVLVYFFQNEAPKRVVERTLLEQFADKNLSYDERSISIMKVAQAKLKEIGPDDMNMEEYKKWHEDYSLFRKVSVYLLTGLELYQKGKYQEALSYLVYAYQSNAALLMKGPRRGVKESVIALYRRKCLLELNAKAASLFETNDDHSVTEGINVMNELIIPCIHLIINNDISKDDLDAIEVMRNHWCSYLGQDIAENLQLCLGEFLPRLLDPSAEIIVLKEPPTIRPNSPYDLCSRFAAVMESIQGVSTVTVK
USP15, sequence (Q9Y4E8 whole entry, species assumed): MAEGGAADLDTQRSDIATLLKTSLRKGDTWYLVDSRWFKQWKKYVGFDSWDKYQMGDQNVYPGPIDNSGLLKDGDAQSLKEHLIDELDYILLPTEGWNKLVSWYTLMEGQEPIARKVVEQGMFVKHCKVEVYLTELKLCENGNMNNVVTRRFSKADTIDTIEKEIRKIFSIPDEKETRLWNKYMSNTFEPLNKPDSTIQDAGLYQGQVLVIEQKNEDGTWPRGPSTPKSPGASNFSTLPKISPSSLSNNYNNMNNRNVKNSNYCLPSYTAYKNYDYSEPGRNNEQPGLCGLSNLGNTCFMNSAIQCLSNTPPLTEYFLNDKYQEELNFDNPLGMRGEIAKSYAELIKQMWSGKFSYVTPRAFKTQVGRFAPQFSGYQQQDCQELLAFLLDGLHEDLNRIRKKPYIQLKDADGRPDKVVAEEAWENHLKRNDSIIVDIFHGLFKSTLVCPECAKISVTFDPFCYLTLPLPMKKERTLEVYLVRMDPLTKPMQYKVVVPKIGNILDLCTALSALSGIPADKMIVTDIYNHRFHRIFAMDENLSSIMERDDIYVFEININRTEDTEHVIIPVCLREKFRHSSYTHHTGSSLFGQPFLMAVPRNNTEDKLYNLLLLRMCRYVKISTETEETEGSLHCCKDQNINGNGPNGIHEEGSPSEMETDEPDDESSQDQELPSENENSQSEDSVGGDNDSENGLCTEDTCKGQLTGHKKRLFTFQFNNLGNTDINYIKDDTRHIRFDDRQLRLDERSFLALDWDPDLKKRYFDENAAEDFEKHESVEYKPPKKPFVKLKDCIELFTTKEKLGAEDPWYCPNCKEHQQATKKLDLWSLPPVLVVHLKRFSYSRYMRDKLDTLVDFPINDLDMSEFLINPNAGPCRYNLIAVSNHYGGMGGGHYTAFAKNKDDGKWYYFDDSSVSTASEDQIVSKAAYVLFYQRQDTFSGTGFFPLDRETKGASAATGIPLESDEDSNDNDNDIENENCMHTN
UchL3, sequence (P15374 whole entry, species assumed): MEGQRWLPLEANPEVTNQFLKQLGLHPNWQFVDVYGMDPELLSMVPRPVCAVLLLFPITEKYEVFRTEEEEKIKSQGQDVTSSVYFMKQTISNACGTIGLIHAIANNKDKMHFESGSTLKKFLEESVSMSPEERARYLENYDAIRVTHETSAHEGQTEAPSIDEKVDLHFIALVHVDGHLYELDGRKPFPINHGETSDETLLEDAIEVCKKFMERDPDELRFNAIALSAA

For `C[C@@H]1[C@H]2CCN(C(=O)c3ncc(-c4ccnc(C#N)c4)o3)[C@H]2CN1C#N` [MTX115325], the “TOM20 ubiquitylation signal, MTX115325 + AO (Figure 4b)” value (shortened to “TOM20 ubiquitylation signal”) ([1]; 0.0001 µM) was 1.19, the “TOM20 ubiquitylation signal” value ([1]; 0.0003 µM) was 1.5 and the “TOM20 ubiquitylation signal” value ([1]; 0.001 µM) was 1.43. For the same molecule, the “TOM20 ubiquitylation signal” value ([1]; 0.003 µM) was 1.6, the “TOM20 ubiquitylation signal” value ([1]; 0.01 µM) was 2.01 and the “TOM20 ubiquitylation signal” value ([1]; 0.03 µM) was 2.55. For the same molecule, the “TOM20 ubiquitylation signal” value ([1]; 0.1 µM) was 3.08, the “TOM20 ubiquitylation signal” value ([1]; 0.3 µM) was 3.55 and the “TOM20 ubiquitylation signal” value ([1]; 1 µM) was 3.5. The “TOM20 ubiquitylation signal” value ([1]; 3 µM) was 3.33, the “TOM20-Ub 1.5X interpolated value (representative profile, Fig. 4b)” value ([1]; HeLa cells, 90 min, representative concentration-response) was 0.0020 µM and the “TOM20-Ub EC1.5x” value ([1]; HeLa-PARKIN + A/O, 90 min) was 10 nM. For the same molecule, the EC50 ([1]; HeLa cells, 90 min, representative concentration-response, read-out: TOM20-Ub EC50 (representative profile, Fig. 4b)) was 0.022 µM, the EC50 ([1]; HeLa-PARKIN + A/O, 90 min, read-out: TOM20-Ub EC50) was 0.032 µM and the Increase in mitophagy ([2]; 37 nM, 72 h, with 0.1 mM A/O as printed) was 22%. The “Maximum increase in mitophagy compared to baseline” value ([2]; 1 µM, 72 h, with 0.1 mM A/O as printed) was 54%, the “Mitophagy (mito-QC)” value ([2]; 72 h in combination with sub-maximal A/O) was “significantly potentiates mitophagy induction; also recorded: concentration-dependent increase in mitophagy” and the IC50 [3] was 106 µM. For the same molecule, the IC50 [4] was 212 µM, the IC50 [5] was 291 µM and the IC50 [6] was greater than 300 µM. For the same molecule, the IC50 [7] was greater than 300 µM, the IC50 [8] was greater than 300 µM and the IC50 [9] was greater than 300 µM. For the same molecule, the IC50 [10] was greater than 300 µM, the IC50 [11] was greater than 300 µM and the IC50 [12] was greater than 300 µM. It also gave an IC50 [13] greater than 300 µM, an IC50 [14] greater than 300 µM and an IC50 [15] greater than 300 µM. The IC50 [16] was greater than 300 µM, the IC50 [17] was greater than 300 µM and the IC50 [18] was greater than 300 µM. For the same molecule, the IC50 [19] was greater than 300 µM, the IC50 [20] was greater than 300 µM and the IC50 [21] was greater than 300 µM.
